Patent publication US9988377B2, “Small molecule inducers of GDNF as potential new therapeutics for neuropsychiatric disorders” (THE TRUSTEES OF COLUMBIA UNIVERSITY IN THE CITY OF NEW YORK, priority 2011, dated 2018)
Read-outs that look alike come from different tables or passages of the source.

Legend:
[1] = test system: GDNF release from C6 glioma cells; test: GDNF in-situ ELISA in C6 glioma cells; assay type: cell-based; settings: 10 μM compound, 48-hour incubation, fold over control release, corrected for pre-treatment release; for fold induction at 10 µM: C6 glioma, 48 h, read-out: Fold-Increase of GDNF Concentration
Method: The GDNF Emax Immunoassay System from Promega (Madison, Wis.) was used to determine small molecule induced GDNF release from C6 glioma cells (ATCC, Manassas, Va.) with the following protocol. A 96-well ELISA plate was sterilized with UV for 30 minutes. The plate was coated with 100 μl/well of the anti-GDNF monoclonal antibody solution in carbonate coating buffer prepared per the manufacturer's instructions, and incubated overnight at 4° C. The antibody coating buffer was removed from the plate, which was then blocked according to the instructions in the kit. The plate was then incubated with 200 μl/well complete growth medium ([…], 5% FBS, 1% penicillin/streptomycin) for 2×1 h at rt to remove residue of the blocking buffer. After these washes were complete, fresh culture media was added to the wells. C6 cells were seeded at a density of 11,000 cells/well, with a total volume of approximately 150 μl in each well. The plate was incubated at 37° C. in an atmosphere containing 5% CO2. After 24 hours, complete growth medium was replaced with low serum medium (98.5% DMEM, 0.5% FBS, 1% penicillin/streptomycin) and the plate was incubated overnight for cellular synchronization. On the following day, cells were treated with experimental compounds for the indicated time. We used 10 μM concentrations of the tested compounds during a 48-hour incubation. Simultaneously with initiation of treatment, cells were removed from pre-treatment control wells with 5×200 μL washes of TBST (to control for basal GDNF release before the treatment period), and low-serum medium was added to these wells. 6 hours prior to stopping treatment with experimental compounds, the GDNF standard was added to the plate per the manufacturer's instructions. To terminate the treatment, the plate was washed extensively with 200 μl/well TBST washing buffer 5 times, which removed the cells. GDNF release for each well was measured according to GDNF Emax Immunoassay system instructions, and a plate reader was used to measure absorbance at 450 nm. Total GDNF release is calculated from the standard curve using Microsoft Excel. The listed values in Table 1 are presented as fold-increase of release of GDNF over control release of GDNF, corrected for pre-treatment release by subtracting from all values the mean amount of GDNF released in pre-treatment control wells. Statistical significance was determined using the Student's t-test.

[2] = test system: GDNF release from C6 cells; test: GDNF releasing potency assay (dose-response in C6 cells); assay type: cell-based; settings: 0.1-50 uM, concentration giving 50% of maximal GDNF release
Method: Four compounds were selected for determination of GDNF releasing potency. The EC50 value (Table 3) is defined as the concentration of the compound at which 50% of maximal GDNF release is obtained. The C6 cells were incubated with the selected compounds over a range of concentrations (0.1, 1, 5, 10, 20, 30 and 50 uM for each compound) and the amount of released GDNF at each concentration was via examing the dose-dependent release. A dose-response curve was constructed and the EC50 value was obtained by fitting this curve using GraphPad Prism software.

[3] = test system: alcohol intake; settings: rats; effect dependent on induction of GDNF in the VTA; cited from earlier work
[4] = test system: alcohol intake; settings: mice; effect dependent on induction of GDNF in the VTA; cited from earlier work
[5] = Rattus norvegicus, C6, C6 cells

## CCC1CC2C=CC1N(CCc1c[nH]c3ccccc13)C2 (racemic) [Compound 10a, exo-2-[2-(1H-indol-3-yl)ethyl]-7-ethyl-2-azabicyclo[2.2.2]oct-5-ene]
[1]
  Fold-Increase of GDNF Concentration: 3.2 ± 0.2 fold
[2]; [5]
  EC50: 10.2 ± 0.3 µM

## CCC1CC2C=CC1N(CCc1c[nH]c3ccccc13)C2 (racemic) [Compound 12a, endo-2-[2-(1H-indol-3-yl)ethyl]-7-ethyl-2-azabicyclo[2.2.2]oct-5-ene]
[1]
  fold induction at 10 µM: 2 ± 0.1
[2]; C6 cells
  EC50: 18.2 ± 0.2 µM

## CCC1CC2C=CC1N(CCc1c[nH]c3ccc(C(F)(F)F)cc13)C2 (racemic) [Compound 12f, endo-7-ethyl-2-[2-(5-trifluoromethyl-1H-indol-3-yl)ethyl]-2-azabicyclo[2.2.2]oct-5-ene]
[1]
  fold induction at 10 µM: 2

## CCC1CC2C=CC1N(CCc1coc3ccccc13)C2 (racemic) [Compound 12g, endo-2-[2-(benzofuran-3-yl)ethyl]-7-ethyl-2-azabicyclo [2.2.2]oct-5-ene]
[1]
  fold induction at 10 µM: 2.9 ± 0.1
[2]; C6 cells
  EC50: 3.6 ± 0.1 µM
[2]; [5]
  EC50: 3.3 µM

## CCC1CC2C=CC1N(CCc1c[nH]c3ccc(F)cc13)C2 (racemic) [Compound 12h, endo-7-ethyl-2-[2-(5-fluoro-1H-indol-3-yl)ethyl]-2-azabicyclo[2.2.2]oct-5-ene]
[1]
  fold induction at 10 µM: 3.1 ± 0.2
[2]; [5]
  EC50: 3.3 µM

## CCC1CC2C=CC1N(CCc1nc3ccccc3[nH]1)C2 (racemic) [Compound 12l, endo-2-[2-(1H-benzo[d]imidazol-2-yl)ethyl]-7-ethyl-2-azabicyclo[2.2.2]oct-5-ene]
[1]
  fold induction at 10 µM: 1.5

## CCC1CC2CCC1N(CCc1c[nH]c3ccccc13)C2 (racemic) [Compound 13a, endo-2-[2-(1H-indol-3-yl)ethyl]-7-ethyl-2-azabicyclo [2.2.2]octane]
[1]
  fold induction at 10 µM: 2

## CCC1CC2CCC1N(CCc1c[nH]c3ccc(F)cc13)C2 (racemic) [Compound 13b, endo-7-ethyl-2-[2-(5-fluoro-1H-indol-3-yl)ethyl]-2-azabicyclo [2.2.2]octane]
[1]
  fold induction at 10 µM: 2

## C1=CC2CCC1CN2CCc1c[nH]c2ccccc12 (racemic) [Compound 18a, 2-[2-(1H-indol-3-yl)ethyl]-2-azabicyclo[2.2.2]oct-5-ene]
[1]
  fold induction at 10 µM: 1.6

## C1=CC2CCC1CN2Cc1c[nH]c2ccccc12 (racemic) [Compound 18b, 2-[(1H-indol-3-yl)methyl]-2-azabicyclo[2.2.2]oct-5-ene]
[1]
  fold induction at 10 µM: 1.6 ± 0.1

## CCOC(=O)C1CC2C=CC1N(CCc1c[nH]c3ccccc13)C2 (racemic) [Compound 21, 7-exo-ethoxycarbonyl-2-[2-(1H-indol-3-yl)ethyl]-2-azabicyclo[2.2.2]oct-5-ene]
[1]
  fold induction at 10 µM: 1

## CCOC(=O)C1CC2C=CC1N(CCc1c[nH]c3ccccc13)C2 (racemic) [Compound 22, 7-endo-ethoxycarbonyl-2-[2-(1H-indol-3-yl)ethyl]-2-azabicyclo[2.2.2]oct-5-ene]
[1]
  Fold-Increase of GDNF Concentration: 2.0 ± 0.0 fold

## CC[C@H]1C[C@H]2C[C@H]3c4[nH]c5ccc(O)cc5c4CCN(C2)[C@@H]13 [noribogaine]
[3]
  self-administration and reinstatement of alcohol intake: reduce self-administration and reinstatement of alcohol intake
[4]
  self-administration and reinstatement of alcohol intake: reduce self-administration and reinstatement of alcohol intake

## ibogaine
[3]
  self-administration and reinstatement of alcohol intake: reduce self-administration and reinstatement of alcohol intake
[4]
  self-administration and reinstatement of alcohol intake: reduce self-administration and reinstatement of alcohol intake
